Here are results for 14 compounds from PMC9004346, “Development of small cyclic peptides targeting the CK2α/β interface” (Chemical Communications (Cambridge, England), 2022).

Changes are numbered by the printed parent chain. *1 amine or outer side, *2 acyl side, *3 side chain or, on linkers, in order; H or OH if unused. Where a SMILES comes first, the peptide text is derived from it. Bridges are numbered along the chain shown (N, C = ends). Side-chain parts run from the residue outwards. [ ]: non-standard residue; d: D form. The star is where a group is joined. Trp(2-yl) = O=C([C@H](Cc1c([*:3])[nH]c2ccccc12)N[*:1])[*:2]; X1 = CN(CC(=O)O)c1nc(CC[*:1])cc(CC[*:2])n1; Dap(N3) = [N-]=[N+]=NC[C@H](N)C(=O)O; mXylylene = c1cc(C[*:1])cc(C[*:2])c1; CH2COCH2 = O=C(C[*:1])C[*:2]; Lauroyl = CCCCCCCCCCCC(=O)*; hCys = N[C@@H](CCS)C(=O)O; AEEA = NCCOCCOCC(=O)O Where only a bound is given, the exact number is not on record here.

The term viability denotes a read-out of living cells in per cent, often relative to untreated cells. Usually Kd stands for the equilibrium constant for the complex coming apart. Low values mean a tighter complex, high ones a looser complex. A word on the IC50: it is the point on the concentration scale where inhibition reaches its midpoint. The low end stands for higher potency, the high end for lower potency.

Tested on in one data set: not listed separately
The data set can be described thus: MTT cell viability assay in HeLa cells. It counts as cell-based. Particulars: human; HeLa cells, 48 h, 50 μM compound; ±standard deviation; read-out: Cell viability (%) 50 μM compound. As to the method: HeLa cells were maintained in 5% CO2 in DMEM supplemented with 10% FBS, 2 mM L-glutamine, 100 U/mL penicillin and […] streptomycin, in an atmosphere containing 5% CO2.
Cells were regularly passed and used for experiments within one month after thawing (10-15 […]
1.6.2 Cell viability assay
Cell viability was assayed by 3-(4,5-dimethylthiazol-2-yl)-2,5-diphenyltetrazolium bromide (MTT) colorimetric assay. HeLa cells were plated on 96-well plates (20,000 cells per well in 100 μL). After 24 h, cells were treated with different concentrations of test compounds or vehicle alone (DMSO). One hour before the end of the incubations, 10 μL of MTT solution (5 mg/mL in PBS) were added to each well. Formazan crystals (proportional to the number of viable cells) were then dissolved by the addition of 20 μL/well of a pH 4.7 solution containing 20% (w:v) SDS, 50% (v:v) N,N-dimethylformamide, 2% (v:v) acetic acid, and 25 mM HCl, and quantified by recording the absorbance at 570 nm using an Infinite M200 PRO plate reader (TECAN, Life Sciences). […]
(In general: Formazan colour is commonly taken as a measure of viable cells.)
For the compound `O=C(O)c1ccc2c(c1)nc(Nc1cccc(Cl)c1)c1ccncc12` [CX-4945, reference compound], the viability at 48 h, 50 µM came out at 29 ± 1%.

The same data set, now with this note: human; HeLa cells, 48 h, 100 μM compound; ±standard deviation; read-out: Cell viability (%) 100 μM compound.
`O=C(O)c1ccc2c(c1)nc(Nc1cccc(Cl)c1)c1ccncc12` [CX-4945, reference compound]: the viability at 48 h, 100 µM came out at 21 ± 1%.

A further data set has as its target T1, CK2α (Homo sapiens, UniProt P68400, K74A/K75A/K76A/R21S).
T1 construct: CK2α_KA (residues 2-329) contained four mutations; made in house
T1 sequence (P68400 2-329 R21S/K74A/K75A/K76A): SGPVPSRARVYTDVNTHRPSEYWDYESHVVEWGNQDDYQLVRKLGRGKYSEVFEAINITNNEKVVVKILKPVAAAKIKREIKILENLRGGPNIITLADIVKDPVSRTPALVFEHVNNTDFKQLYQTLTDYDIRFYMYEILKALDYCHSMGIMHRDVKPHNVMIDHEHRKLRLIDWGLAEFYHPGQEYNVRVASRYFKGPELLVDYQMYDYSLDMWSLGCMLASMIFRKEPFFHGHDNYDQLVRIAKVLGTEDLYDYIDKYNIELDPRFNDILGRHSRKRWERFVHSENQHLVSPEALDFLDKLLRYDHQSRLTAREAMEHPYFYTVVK
The experiment in a line: Isothermal titration calorimetry (ITC) binding to CK2α. The note with it: 25 °C, CK2α_KA. The text has this:
Ligand efficiency (LE) is a commonly used statistic to evaluate and compare the effectiveness of drug candidates.17 Mathematically, it is related to the IC50 of the molecule, as well as the number of heavy atoms (non-hydrogen) it contains, as detailed in Equation 1. 18
Equation 1 Mathematical expression for the ligand efficiencies of compounds.18 pIC50 = -log10(IC50) LE = Number of non ‒ H atoms […]
greatest activity with the fewest heavy atoms.
(§1) 1.5 Biophysical experiments
(§2) 1.5.1 Protein expression and purification
Three constructs of CK2α were used in this study. For FP assays, CK2α_WT was used (residues 2-329).
For ITC CK2α_KA construct was used whilst CK2α_FP10 was used for crystallisation purposes. CK2α_KA (residues 2-329) contained four mutations designed to aid crystallisation and solubility by reducing the overall charge of the protein; R21S, K74A, K75A and K76A. CK2α_FP 10 contained one mutation (R21S) and an N-terminal extension […] aimed at mimicking a substrate peptide for CK2α. These constructs were cloned, expressed, and purified as previously described.19 1.5.2 Fluorescence polarisation
(§3) IC50’s were determined using a PHERAstar FS plate reader (BMG labtech). The fluorescein probe was measured using 485 nm excitation and 530 nm emission. The fluorescein probe was covalently linked to the N-terminus of the linear CK2β-based peptide RLYGFKIHPMAYQLQ. IC50’s were measured using 500, 167, 16.7, 8.33 and 0 μM of the test peptide at a constant concentration of DMSO. P7C8, P8C9, P+L and P+ were tested at concentrations of 50.0, 16.7, 1.67, 0.833 and 0 μM due to their higher potencies. The experiments were performed in a Corning 384-well plate with final concentrations of 571 nM CK2α_WT (residues 2-329), 7.4 μM fluorescent peptide (fluorescein probe was covalently linked to the N-terminus of the linear CK2β-based peptide RLYGFKIHPMAYQLQ), 200 mM NaCl, 40mM TRIS, 20 mM MgCl2 and pH 7.5. The plates were read after a 45 min incubation period.
1.5.3 Isothermal titration calorimetry
All ITC experiments were performed at 25 °C using a MicroCal ITC-200 (GE Healthcare). […]
In general terms: In ITC the heat of successive injections is recorded.
In turn, `CC(=O)NCCOCCOCC(=O)NCCCC[C@@H]1NC(=O)[C@H](Cc2ccccc2)NC(=O)CNC(=O)[C@H](Cc2ccc(O)cc2)NC(=O)[C@H](CC(C)C)NC(=O)[C@H](CCCNC(=N)N)NC(=O)[C@@H](NC(C)=O)CCSc2[nH]c3ccccc3c2C[C@@H](C(N)=O)NC1=O` [P8C9[PEG]] (Ac-[hCys]RLYGFK([AEEA-Ac])[Trp(2-yl)]-NH2; thioether 1-8 (inferred)) had a Kd of 1.6 µM.

`CCCCCCCCCCCC(=O)NCCOCCOCC(=O)N[C@H]1CCSc2[nH]c3ccccc3c2C[C@@H](C(N)=O)NC(=O)[C@H](CCCCN)NC(=O)[C@H](Cc2ccccc2)NC(=O)CNC(=O)[C@H](Cc2ccc(O)cc2)NC(=O)[C@H](CC(C)C)NC(=O)[C@H](CCCNC(=N)N)NC1=O` [FA-P8C9] ({Lauroyl-AEEA}-[hCys]RLYGFK[Trp(2-yl)]-NH2; thioether 1-8) yielded a Kd of 1.3 µM.

For another data set, the target named is T2, CK2α (Homo sapiens, UniProt P68400).
T2 construct: 571 nM CK2α_WT (residues 2-329); made in house
T2 sequence (P68400 2-329): T1 sequence (P68400 2-329 R21S/K74A/K75A/K76A) with S20R, A73K, A74K, A75K
The experiment in a line: Fluorescence polarisation (FP) assay: displacement of a CK2β-like fluorescent probe from CK2α. Format: binding. The note with it: CK2α_WT (residues 2-329), fluorescein-labelled CK2β-based peptide probe, ±SEM.
Excerpt: To assess the ability of the synthesised linear peptides to displace a CK2β-like fluorescent probe from CK2α, a fluorescence polarisation (FP) assay was used (Table 1, ESI 1.3.2 and Fig. S2, ESI ^†). […]
as §1, §2
Three constructs of CK2α were used in this study. For FP assays, CK2α_WT was used (residues 2-329). […]
These constructs were cloned, expressed, and purified as previously described.19 1.5.2 Fluorescence polarisation
as §3, with “period. […]” for “period.”
In general terms: Fluorescence polarisation rises when a labelled molecule tumbles more slowly, as on binding a larger partner.
`CC(=O)N[C@H]1CSCCc2cc(nc(N(C)CC(=O)O)n2)CCSC[C@@H](C(N)=O)NC(=O)[C@H](CCCCN)NC(=O)[C@H](Cc2ccccc2)NC(=O)CNC(=O)[C@H](Cc2ccc(O)cc2)NC(=O)[C@H](CC(C)C)NC(=O)[C@H](CCCNC(=N)N)NC1=O` [Peptide P5C7] (Ac-CRLYGFKC-NH2; linker 1-8 via X1) displayed an IC50 of 40 ± 4.7 µM.

In the case of Ac-RLYGFKW-NH2 [Peptide P3, RLYGFKW], the IC50 is 22.5 ± 2.4 µM. Against the preceding compound, the IC50 is about 1.8-fold lower.

For the compound Ac-RLYGFKWH-NH2 [Peptide P4, RLYGFKWH], the IC50 was 16.7 ± 2.3 µM.

Compound Ac-LYGFKW-NH2 [Peptide P2, LYGFKW] yielded an IC50 of 137 ± 25.8 µM. Compared with the last compound, the IC50 is about 8.2-fold higher.

For the compound `CC(=O)N[C@H]1CSCC(=O)CSC[C@@H](C(N)=O)NC(=O)[C@H](CCCCN)NC(=O)[C@H](Cc2ccccc2)NC(=O)CNC(=O)[C@H](Cc2ccc(O)cc2)NC(=O)[C@H](CC(C)C)NC(=O)[C@H](CCCNC(=N)N)NC1=O` [Peptide P5C4] (Ac-CRLYGFKC-NH2; linker 1-8 via CH2COCH2), the IC50 was determined as 54.6 ± 11.2 µM. This IC50 lies about 2.5-fold lower than the previous one.

As for Ac-RLYGFK-NH2 [Peptide P1, RLYGFK], the IC50 is more than 500 µM.

Consider `CC(=O)NCC(=O)N[C@H]1Cn2cc(nn2)-c2cc(C(=O)O)cc(c2)-c2cn(nn2)C[C@@H](C(=O)NCC(=O)NCC(N)=O)NC(=O)[C@H](Cc2c[nH]cn2)NC(=O)[C@H](Cc2c[nH]c3ccccc23)NC(=O)[C@H](CCCCN)NC(=O)[C@H](Cc2ccccc2)NC(=O)CNC(=O)[C@H](Cc2ccc(O)cc2)NC(=O)[C@H](CC(C)C)NC(=O)[C@H](CCCNC(=N)N)NC1=O` [P+, GXC1RLYGFKWHXC1GG, reference compound], for which the IC50 was 8.7 ± 4.2 µM.

With `CC(=O)NCC(=O)N[C@@H](CN=[N+]=[N-])C(=O)N[C@@H](CCCNC(=N)N)C(=O)N[C@@H](CC(C)C)C(=O)N[C@@H](Cc1ccc(O)cc1)C(=O)NCC(=O)N[C@@H](Cc1ccccc1)C(=O)N[C@@H](CCCCN)C(=O)N[C@@H](Cc1c[nH]c2ccccc12)C(=O)N[C@@H](Cc1c[nH]cn1)C(=O)N[C@@H](CN=[N+]=[N-])C(=O)NCC(=O)NCC(N)=O` [P+L, reference compound] (Ac-G[Dap(N3)]RLYGFKWH[Dap(N3)]GG-NH2), the IC50 came to 11.7 µM.

`CC(=O)N[C@H]1CSc2[nH]c3ccccc3c2C[C@@H](C(N)=O)NC(=O)[C@H](CCCCN)NC(=O)[C@H](Cc2ccccc2)NC(=O)CNC(=O)[C@H](Cc2ccc(O)cc2)NC(=O)[C@H](CC(C)C)NC(=O)[C@H](CCCNC(=N)N)NC1=O` [Peptide P7C8, CC8RLYGFKWC8] (Ac-CRLYGFK[Trp(2-yl)]-NH2; thioether 1-8) displayed an IC50 of 15.6 ± 5.1 µM.

In the case of `CC(=O)N[C@H]1CSCc2cccc(c2)CSC[C@@H](C(N)=O)NC(=O)[C@H](CCCCN)NC(=O)[C@H](Cc2ccccc2)NC(=O)CNC(=O)[C@H](Cc2ccc(O)cc2)NC(=O)[C@H](CC(C)C)NC(=O)[C@H](CCCNC(=N)N)NC1=O` [Peptide P5C5] (Ac-CRLYGFKC-NH2; linker 1-8 via mXylylene), the IC50 was 28.9 ± 1.9 µM.

Tested on in the next data set: not listed separately
The data set can be described thus: Solubility observations during FP and ITC testing. It counts as physicochemical. Particulars: observed during FP or ITC testing.
As for `CCCCCCCCCCCC(=O)NCCOCCOCC(=O)NCCCC[C@@H]1NC(=O)[C@H](Cc2ccccc2)NC(=O)CNC(=O)[C@H](Cc2ccc(O)cc2)NC(=O)[C@H](CC(C)C)NC(=O)[C@H](CCCNC(=N)N)NC(=O)[C@@H](NC(C)=O)CCSc2[nH]c3ccccc3c2C[C@@H](C(N)=O)NC1=O` [P8C9[FA]] (Ac-[hCys]RLYGFK([AEEA-Lauroyl])[Trp(2-yl)]-NH2; thioether 1-8), the “Solubility (observation in words)” value is “Precipitation”.
